Reference: ChEMBL document CHEMBL3352020, “Targeting matrix metalloproteinases: exploring the dynamics of the s1' pocket in the design of selective, small molecule inhibitors” (J Med Chem, 2014)
pIC50, pKi: −log10 of the molar value.

How the values were obtained:
Stromelysin-1 = Stromelysin-1 (Homo sapiens, UniProt P08254); assay: Inhibition of MMP3 (unknown origin)
Neutrophil collagenase = Neutrophil collagenase (Homo sapiens, UniProt P22894); assay: Inhibition of MMP8 (unknown origin)
Interstitial collagenase = molecular target: T1, Interstitial collagenase (Homo sapiens, UniProt P03956); assay: Inhibition of MMP1 (unknown origin)
T1 sequence (P03956 whole entry): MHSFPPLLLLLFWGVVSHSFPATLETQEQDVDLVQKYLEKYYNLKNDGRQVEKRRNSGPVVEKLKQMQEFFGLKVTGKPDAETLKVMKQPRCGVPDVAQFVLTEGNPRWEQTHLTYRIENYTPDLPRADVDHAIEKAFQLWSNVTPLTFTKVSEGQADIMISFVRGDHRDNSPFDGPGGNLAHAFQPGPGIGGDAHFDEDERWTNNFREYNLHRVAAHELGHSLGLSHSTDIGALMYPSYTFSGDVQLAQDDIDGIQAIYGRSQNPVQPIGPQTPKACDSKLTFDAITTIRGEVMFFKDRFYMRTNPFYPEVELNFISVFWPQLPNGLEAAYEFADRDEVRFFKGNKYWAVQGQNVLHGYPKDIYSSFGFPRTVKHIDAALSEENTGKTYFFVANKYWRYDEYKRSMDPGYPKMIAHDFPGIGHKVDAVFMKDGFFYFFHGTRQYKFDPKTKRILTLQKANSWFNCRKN

[1] = molecular target: 72 kDa type IV collagenase (Homo sapiens, UniProt P08253); assay: Inhibition of MMP2 (unknown origin)
Sequence of 72 kDa type IV collagenase (P08253 whole entry): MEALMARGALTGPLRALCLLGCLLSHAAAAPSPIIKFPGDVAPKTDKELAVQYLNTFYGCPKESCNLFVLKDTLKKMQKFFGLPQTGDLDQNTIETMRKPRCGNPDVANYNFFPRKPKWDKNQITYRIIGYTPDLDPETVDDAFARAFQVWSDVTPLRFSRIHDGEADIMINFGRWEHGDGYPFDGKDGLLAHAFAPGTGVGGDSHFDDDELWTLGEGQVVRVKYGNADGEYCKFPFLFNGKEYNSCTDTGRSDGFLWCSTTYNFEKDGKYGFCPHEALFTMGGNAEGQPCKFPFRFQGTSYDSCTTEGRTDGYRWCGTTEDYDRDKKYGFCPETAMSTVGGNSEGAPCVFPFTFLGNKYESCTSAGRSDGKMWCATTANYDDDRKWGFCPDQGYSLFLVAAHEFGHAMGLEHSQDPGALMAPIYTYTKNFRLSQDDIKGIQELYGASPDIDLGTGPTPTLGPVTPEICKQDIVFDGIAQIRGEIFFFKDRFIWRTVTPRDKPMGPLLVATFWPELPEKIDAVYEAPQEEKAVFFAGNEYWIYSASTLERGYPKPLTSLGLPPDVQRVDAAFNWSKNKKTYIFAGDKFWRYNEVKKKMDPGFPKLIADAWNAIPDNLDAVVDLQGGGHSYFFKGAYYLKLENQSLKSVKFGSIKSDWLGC

[2] = molecular target: Matrix metalloproteinase-9 (Homo sapiens, UniProt P14780); assay: Inhibition of MMP9 (unknown origin)
Sequence of Matrix metalloproteinase-9 (P14780 whole entry): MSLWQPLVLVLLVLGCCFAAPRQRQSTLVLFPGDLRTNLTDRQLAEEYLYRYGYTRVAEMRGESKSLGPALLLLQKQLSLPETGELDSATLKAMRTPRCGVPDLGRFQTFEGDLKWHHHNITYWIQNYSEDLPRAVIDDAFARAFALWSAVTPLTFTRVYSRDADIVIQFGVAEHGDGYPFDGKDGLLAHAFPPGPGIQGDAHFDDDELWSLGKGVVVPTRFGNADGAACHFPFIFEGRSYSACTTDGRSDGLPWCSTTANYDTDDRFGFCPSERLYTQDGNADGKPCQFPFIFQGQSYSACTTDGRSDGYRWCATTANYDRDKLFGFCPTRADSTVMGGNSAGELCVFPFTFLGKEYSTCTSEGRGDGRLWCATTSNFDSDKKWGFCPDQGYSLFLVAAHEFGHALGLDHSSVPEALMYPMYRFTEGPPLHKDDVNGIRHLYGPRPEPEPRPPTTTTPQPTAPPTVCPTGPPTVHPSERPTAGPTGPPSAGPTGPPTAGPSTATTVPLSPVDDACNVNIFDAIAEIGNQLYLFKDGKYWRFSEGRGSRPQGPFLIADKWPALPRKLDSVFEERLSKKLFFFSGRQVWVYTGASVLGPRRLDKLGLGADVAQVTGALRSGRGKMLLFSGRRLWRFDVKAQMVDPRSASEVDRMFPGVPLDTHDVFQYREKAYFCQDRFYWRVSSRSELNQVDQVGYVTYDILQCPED

Matrilysin = molecular target: T2, Matrilysin (Homo sapiens, UniProt P09237); assay: Inhibition of MMP7 (unknown origin)
T2 sequence (P09237 whole entry): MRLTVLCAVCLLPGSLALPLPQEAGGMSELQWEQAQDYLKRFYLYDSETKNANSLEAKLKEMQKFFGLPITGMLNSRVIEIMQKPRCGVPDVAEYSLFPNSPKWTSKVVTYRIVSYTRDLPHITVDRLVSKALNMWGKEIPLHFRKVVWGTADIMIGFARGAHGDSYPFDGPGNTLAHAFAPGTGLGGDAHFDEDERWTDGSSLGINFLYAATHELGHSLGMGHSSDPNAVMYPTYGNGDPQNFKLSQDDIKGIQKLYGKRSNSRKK

[3] = molecular target: Matrix metalloproteinase-14 (Homo sapiens, UniProt P50281); assay: Inhibition of MMP14 (unknown origin)
[4] = molecular target: Macrophage metalloelastase (Homo sapiens, UniProt P39900); assay: Inhibition of MMP12 (unknown origin)
Sequence of Macrophage metalloelastase (P39900 whole entry): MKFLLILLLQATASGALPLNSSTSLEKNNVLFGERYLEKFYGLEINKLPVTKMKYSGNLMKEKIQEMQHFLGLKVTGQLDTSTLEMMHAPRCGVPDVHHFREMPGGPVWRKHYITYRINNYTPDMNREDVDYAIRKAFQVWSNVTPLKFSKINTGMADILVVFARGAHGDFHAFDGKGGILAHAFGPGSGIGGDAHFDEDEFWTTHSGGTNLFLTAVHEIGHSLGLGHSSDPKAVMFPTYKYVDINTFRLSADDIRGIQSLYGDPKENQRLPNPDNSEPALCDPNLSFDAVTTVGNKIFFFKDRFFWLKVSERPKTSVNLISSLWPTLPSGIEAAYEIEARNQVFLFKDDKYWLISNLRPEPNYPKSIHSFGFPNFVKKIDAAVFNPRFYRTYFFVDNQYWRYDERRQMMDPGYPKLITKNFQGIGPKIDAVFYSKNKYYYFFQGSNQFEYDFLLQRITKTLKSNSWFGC

[5] = molecular target: T3, Matrix metalloproteinase-17 (Homo sapiens, UniProt Q9ULZ9); assay: Inhibition of MMP17 (unknown origin)
T3 sequence (Q9ULZ9 whole entry): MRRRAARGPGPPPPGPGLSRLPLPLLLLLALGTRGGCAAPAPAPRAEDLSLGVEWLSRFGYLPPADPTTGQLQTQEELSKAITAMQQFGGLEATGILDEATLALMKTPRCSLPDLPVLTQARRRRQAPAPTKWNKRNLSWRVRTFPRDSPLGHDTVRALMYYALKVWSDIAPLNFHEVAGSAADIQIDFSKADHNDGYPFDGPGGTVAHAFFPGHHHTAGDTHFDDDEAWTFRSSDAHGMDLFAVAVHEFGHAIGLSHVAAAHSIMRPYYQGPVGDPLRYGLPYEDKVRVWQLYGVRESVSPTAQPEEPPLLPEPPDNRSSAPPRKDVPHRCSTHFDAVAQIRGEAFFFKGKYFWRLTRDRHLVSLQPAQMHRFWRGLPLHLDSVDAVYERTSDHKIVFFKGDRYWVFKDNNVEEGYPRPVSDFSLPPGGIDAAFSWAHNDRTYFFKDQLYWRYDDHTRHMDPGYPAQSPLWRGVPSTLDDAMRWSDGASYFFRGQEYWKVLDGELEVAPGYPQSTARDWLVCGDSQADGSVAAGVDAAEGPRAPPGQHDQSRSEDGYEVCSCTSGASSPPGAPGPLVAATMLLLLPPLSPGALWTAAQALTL

Sequence of Stromelysin-1 (P08254 whole entry): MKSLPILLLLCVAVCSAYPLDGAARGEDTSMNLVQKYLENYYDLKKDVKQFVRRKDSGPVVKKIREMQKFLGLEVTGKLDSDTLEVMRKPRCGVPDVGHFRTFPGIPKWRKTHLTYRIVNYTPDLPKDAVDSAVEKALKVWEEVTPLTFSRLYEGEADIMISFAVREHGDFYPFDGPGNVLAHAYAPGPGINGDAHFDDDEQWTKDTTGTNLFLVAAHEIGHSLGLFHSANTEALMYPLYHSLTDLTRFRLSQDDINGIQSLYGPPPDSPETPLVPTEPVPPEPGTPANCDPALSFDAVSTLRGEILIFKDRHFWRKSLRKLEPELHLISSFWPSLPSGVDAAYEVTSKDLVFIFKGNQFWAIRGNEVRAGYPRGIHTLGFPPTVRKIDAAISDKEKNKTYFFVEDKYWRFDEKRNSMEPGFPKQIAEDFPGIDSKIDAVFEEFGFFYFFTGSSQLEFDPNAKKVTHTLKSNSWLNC
Sequence of Neutrophil collagenase (P22894 whole entry): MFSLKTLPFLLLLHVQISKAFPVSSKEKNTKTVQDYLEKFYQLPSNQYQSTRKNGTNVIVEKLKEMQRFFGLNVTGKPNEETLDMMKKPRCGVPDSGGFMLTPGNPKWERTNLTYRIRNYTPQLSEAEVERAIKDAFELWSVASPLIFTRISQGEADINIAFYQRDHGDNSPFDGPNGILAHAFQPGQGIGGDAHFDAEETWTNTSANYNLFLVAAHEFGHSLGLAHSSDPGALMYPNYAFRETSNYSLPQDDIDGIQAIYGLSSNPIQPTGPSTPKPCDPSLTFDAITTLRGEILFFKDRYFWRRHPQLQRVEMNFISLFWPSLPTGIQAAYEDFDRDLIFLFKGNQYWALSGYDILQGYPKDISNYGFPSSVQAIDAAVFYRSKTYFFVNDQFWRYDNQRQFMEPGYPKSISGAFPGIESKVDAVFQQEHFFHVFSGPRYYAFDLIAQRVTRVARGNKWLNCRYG

Row | Compound | pIC50 (Stromelysin-1) | pIC50 (Neutrophil collagenase) | pKi (Interstitial collagenase) | pIC50 (Interstitial collagenase) | pIC50 [1] | pIC50 [2] | pIC50 (Matrilysin) | pIC50 [3] | pIC50 [4] | pIC50 [5]
1 | O=C1N=C(O)NC(=O)[C@@]1(c1ccccc1)N1CCC(CCO)CC1 | 4.52 | 5.77 | – | – | – | – | – | – | – | –
2 | O=C(CC1(S(=O)(=O)c2ccc(Oc3ccccc3)cc2)CCOCC1)NO | – | – | 7.64 | – | – | – | – | – | – | –
3 | CC#CCOc1ccc(Oc2ccc(S(=O)(=O)NC(C(=O)NO)C(C)C)cc2)cc1 (stereo not drawn) | – | – | – | 7.40 | – | – | – | – | – | –
4 | CN(C)c1ccc(-c2cn(-c3ccc(S(=O)(=O)C4(C(=O)NO)CCNCC4)cc3)nn2)cc1 | – | – | – | – | 8.77 | 7.36 | – | – | – | –
5 | CC(C)N(C)c1ccc(-c2cn(-c3ccc(S(=O)(=O)C4(C(=O)NO)CCNCC4)cc3)nn2)cc1 | – | – | – | – | 8.52 | 6.46 | – | – | – | –
6 | O=C(OCc1ccccc1)c1cn2c(=O)n(Cc3ccccc3)c(=O)cc2s1 | < 4.52 | < 4.52 | – | < 4.52 | < 4.52 | < 4.52 | < 4.52 | < 4.52 | < 4.52 | < 4.52
7 | Cn1c(=O)n(Cc2ccc(C(=O)O)cc2)c(=O)c2cc(C#CCc3ccccc3)ccc21 | < 4.52 | < 4.52 | – | < 4.52 | < 4.52 | < 4.52 | < 4.52 | < 4.52 | < 4.52 | < 4.52
8 | NC(=O)CC1CCCc2sc3nc(C(=O)NCc4ccc5c(c4)NC(=O)CO5)[nH]c(=O)c3c21 (racemic) | < 5.60 | – | – | < 5.60 | < 5.60 | < 5.60 | < 5.60 | < 5.60 | < 5.60 | –
